Assay results published in patent US9487510B2, “Substituted heterocyclic acetamides as kappa opioid receptor (KOR) agonists” (Dr. Reddy's Laboratories Ltd., priority 2012, dated 2016).
pEC50: −log10 of the molar value.

Target: human KOR receptor (Homo sapiens, UniProt P41145)
Assay: IP-One HTRF assay, potency of KOR agonists, dose-response in transiently transfected COS-7 cells
Type: cell-based

human KOR receptor, sequence (P41145 whole entry): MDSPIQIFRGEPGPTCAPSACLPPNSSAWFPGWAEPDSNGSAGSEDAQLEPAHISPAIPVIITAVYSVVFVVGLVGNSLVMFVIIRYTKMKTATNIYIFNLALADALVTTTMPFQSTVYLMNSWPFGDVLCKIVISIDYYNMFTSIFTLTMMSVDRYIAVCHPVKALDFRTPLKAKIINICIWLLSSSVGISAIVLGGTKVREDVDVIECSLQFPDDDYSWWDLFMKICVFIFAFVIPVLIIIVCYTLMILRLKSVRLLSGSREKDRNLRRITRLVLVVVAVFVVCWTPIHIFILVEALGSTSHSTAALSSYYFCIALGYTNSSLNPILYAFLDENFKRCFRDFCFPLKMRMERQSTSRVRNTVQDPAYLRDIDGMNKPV

Structure (SMILES): CN(C(=O)Cc1ccc2c(c1)NC(=O)CS2(=O)=O)[C@H](CN1CC[C@H](O)C1)c1cccc(OCC(F)(F)F)c1 [Example 144, 2-(1,1-dioxido-3-oxo-3,4-dihydro-2H-benzo [b][1,4]thiazin-6-yl)-N-((S)-2-((S)-3-hydroxypyrrolidin-1-yl)-1-(3-(2,2,2-trifluoroethoxy)phenyl)ethyl)-N-methylacetamide]
- pEC50: ≥ 7.30

Structure (SMILES): Cc1cccc([C@@H](CN2CC[C@H](O)C2)N(C)C(=O)Cc2ccc3c(c2)NC(=O)CS3(=O)=O)c1 [Example 145, 2-(1,1-dioxido-3-oxo-3,4-dihydro-2H-benzo [b][1,4]thiazin-6-yl)-N-((S)-2-((S)-3-hydroxypyrrolidin-1-yl)-1-(m-tolyl)ethyl)-N-methylacetamide]
- pEC50: ≥ 7.30

Structure (SMILES): CN(C(=O)Cc1ccc2c(c1)NC(=O)CS2(=O)=O)[C@H](CN1CC[C@H](O)C1)c1ccc(F)c(OC(F)(F)F)c1 [Example 146, 2-(1,1-dioxido-3-oxo-3,4-dihydro-2H-benzo[b][1,4]thiazin-6-yl)-N-((S)-1-(4-fluoro-3-(trifluoromethoxy)phenyl)-2-((S)-3-hydroxypyrrolidin-1-yl)ethyl)-N-methylacetamide]
- pEC50: ≥ 7.30

Structure (SMILES): CN(C(=O)Cc1ccc2c(c1)NC(=O)C(C)(C)S2(=O)=O)[C@H](CN1CC[C@H](O)C1)c1cccc(OC(F)(F)F)c1 [Example 148, 2-(2,2-dimethyl-1,1-dioxido-3-oxo-3,4-dihydro-2H-benzo[b][1,4]thiazin-6-yl)-N-((S)-2-((S)-3-hydroxypyrrolidin-1-yl)-1-(3-(trifluoromethoxy)phenyl)ethyl)-N-methylacetamide]
- pEC50: ≥ 7.30

Structure (SMILES): CN(C(=O)Cc1ccc2c(c1)NC(=O)CS2(=O)=O)[C@H](CN1CC[C@H](O)C1)c1cc(F)cc(OCC(F)(F)F)c1 [Example 149, 2-(1,1-dioxido-3-oxo-3,4-dihydro-2H-benzo[b][1,4]thiazin-6-yl)-N-((S)-1-(3-fluoro-5-(2,2,2-trifluoroethoxy)phenyl)-2-((S)-3-hydroxypyrrolidin-1-yl)ethyl)-N-methylacetamide]
- pEC50: ≥ 7.30

Structure (SMILES): CN(C(=O)Cc1ccc2c(c1)NC(=O)CS2)[C@H](CN1CC[C@H](O)C1)c1cccc(C#N)c1 [Example 152, N-((S)-1-(3-cyanophenyl)-2-((S)-3-hydroxypyrrolidin-1-yl)ethyl)-N-methyl-2-(3-oxo-3,4-dihydro-2H-benzo[b][1,4]thiazin-6-yl)acetamide]
- pEC50: ≥ 7.30

Structure (SMILES): CN(C(=O)Cc1ccc2c(c1)NC(=O)CO2)[C@H](CN1CC[C@H](O)C1)c1cccc(C#N)c1 [Example 153, N-((S)-1-(3-cyanophenyl)-2-((S)-3-hydroxypyrrolidin-1-yl)ethyl)-N-methyl-2-(3-oxo-3,4-dihydro-2H-benzo[b][1,4]oxazin-6-yl)acetamide]
- pEC50: ≥ 7.30

Structure (SMILES): CN(C(=O)Cc1ccc2c(c1)NC(=O)CS2)[C@H](CN1CC[C@H](O)C1)c1cccc(C(=O)O)c1 [Example 154, 3-((S)-2-((S)-3-hydroxypyrrolidin-1-yl)-1-(N-methyl-2-(3-oxo-3,4-dihydro-2H-benzo[b][1,4]thiazin-6-yl)acetamido)ethyl)benzoic acid]
- pEC50: ≥ 7.30

Structure (SMILES): CN(C(=O)Cc1ccc2c(c1)NC(=O)CO2)[C@H](CN1CC[C@H](O)C1)c1cccc(C(=O)O)c1 [Example 155, 3-((S)-2-((S)-3-hydroxypyrrolidin-1-yl)-1-(N-methyl-2-(3-oxo-3,4-dihydro-2H-benzo[b][1,4]oxazin-6-yl)acetamido)ethyl)benzoic acid]
- pEC50: ≥ 7.30

Structure (SMILES): CN(C(=O)Cc1ccc2c(c1)NC(=O)C2)[C@H](CN1CC[C@H](O)C1)c1cccc(C#N)c1 [Example 156, N-((S)-1-(3-cyanophenyl)-2-((S)-3-hydroxypyrrolidin-1-yl)ethyl)-N-methyl-2-(2-oxoindolin-6-yl)acetamide]
- pEC50: ≥ 7.30

Structure (SMILES): O=C1Cc2cc(CC(=O)N[C@H](CN3CC[C@H](O)C3)c3ccccc3)ccc2N1 [Example 157, N-((S)-2-((S)-3-hydroxypyrrolidin-1-yl)-1-phenylethyl)-2-(2-oxoindolin-5yl)acetamide]
- pEC50: ≥ 7.30

Structure (SMILES): CN(C(=O)Cc1ccc2c(c1)NC(=O)C2)[C@H](CN1CC[C@H](O)C1)c1cccc(OCC(=O)O)c1 [Example 159, 2-(3-((S)-2-((S)-3-hydroxypyrrolidin-1-yl)-1-(N-methyl-2-(2-oxoindolin-6-yl)acetamido)ethyl)phenoxy)acetic acid]
- pEC50: ≥ 7.30

Structure (SMILES): CN(C(=O)Cc1ccc2oc(=O)[nH]c2c1)[C@H](CN1CC[C@H](O)C1)c1cccc(C(N)=O)c1 [Example 160, 3-((S)-2-((S)-3-hydroxypyrrolidin-1-yl)-1-(N-methyl-2-(2-oxo-2,3-dihydrobenzo[d]oxazol-5-yl)acetamido)ethyl)benzamide]
- pEC50: ≥ 7.30

Structure (SMILES): CN(C(=O)Cc1ccc2c(c1)NC(=O)C2)[C@H](CN1CC[C@H](F)C1)c1cccc(OCC(=O)NS(C)(=O)=O)c1 [Example 162, N-((S)-2-((S)-3-fluoropyrrolidin-1-yl)-1-(3-(2-(methylsulfonamido)-2-oxoethoxy)phenyl)ethyl)-N-methyl-2-(2-oxoindolin-6-yl)acetamide]
- pEC50: ≥ 7.30

Structure (SMILES): CN(C(=O)Cc1ccc2ncc(=O)[nH]c2c1)[C@H](CN1CC[C@H](O)C1)c1cccc(C(N)=O)c1 [Example 164, 3-((S)-2-((S)-3-hydroxypyrrolidin-1-yl)-1-(N-methyl-2-(3-oxo-3,4-dihydroquinoxalin-6-yl)acetamido)ethyl)benzamide]
- pEC50: ≥ 7.30

Structure (SMILES): CN(C(=O)Cc1ccc2c(c1)NC(=O)C2)[C@H](CN1CC[C@H](F)C1)c1cccc(C(N)=O)c1 [Example 165, 3-((S)-2-((S)-3-fluoropyrrolidin-1-yl)-1-(N-methyl-2-(2-oxoindolin-6-yl)acetamido)ethyl)benzamide]
- pEC50: 6.00 to 7.00

Structure (SMILES): CN(C(=O)Cc1ccc2sc(=O)[nH]c2c1)[C@H](CN1CC[C@H](O)C1)c1cccc(OCC(=O)O)c1 [Example 166, 2-(3-((S)-2-((S)-3-hydroxypyrrolidin-1-yl)-1-(N-methyl-2-(2-oxo-2,3-dihydrobenzo [d]thiazol-5-yl)acetamido)ethyl)phenoxy)acetic acid]
- pEC50: ≥ 7.30

Structure (SMILES): CN(C(=O)Cc1ccc2c(c1)NC(=O)CO2)[C@H](CN1CC[C@H](O)C1)c1cccc(OCC(=O)O)c1 [Example 167, 2-(3-((S)-2-((S)-3-hydroxypyrrolidin-1-yl)-1-(N-methyl-2-(3-oxo-3,4-dihydro-2H-benzo[b][1,4]oxazin-6-yl)acetamido)ethyl)phenoxy)acetic acid]
- pEC50: ≥ 7.30

Structure (SMILES): CN(C(=O)Cc1ccc2c(c1)NC(=O)CS2(=O)=O)[C@H](CN1CC[C@H](O)C1)c1cccc(OCC(N)=O)c1 [Example 168, N-((S)-1-(3-(2-amino-2-oxoethoxy)phenyl)-2-((S)-3-hydroxypyrrolidin-1-yl)ethyl)-2-(1,1-dioxido-3-oxo-3,4-dihydro-2H-benzo[b][1,4]thiazin-6-yl)-N-methylacetamide]
- pEC50: ≥ 7.30

Structure (SMILES): CN(C(=O)Cc1ccc2c(c1)CC(=O)N2)[C@H](CN1CC[C@H](O)C1)c1cccc(OCC(=O)O)c1 [Example 169, 2-(3-((S)-2-((S)-3-hydroxypyrrolidin-1-yl)-1-(N-methyl-2-(2-oxoindolin-5-yl)acetamido)ethyl)phenoxy)acetic acid]
- pEC50: ≥ 7.30

Structure (SMILES): CN(C(=O)Cc1ccc2sc(=O)[nH]c2c1)[C@H](CN1CC[C@H](O)C1)c1cccc(OCC(N)=O)c1 [Example 170, N-((S)-1-(3-(2-amino-2-oxoethoxy)phenyl)-2-((S)-3-hydroxypyrrolidin-1-yl)ethyl)-N-methyl-2-(2-oxo-2,3-dihydrobenzo[d]thiazol-5-yl)acetamide]
- pEC50: ≥ 7.30

Structure (SMILES): CN(C(=O)Cc1ccc2ncc(=O)[nH]c2c1)[C@H](CN1CC[C@H](O)C1)c1cccc(OCC(=O)O)c1 [Example 171, 2-(3-((S)-2-((S)-3-hydroxypyrrolidin-1-yl)-1-(N-methyl-2-(3-oxo-3,4-dihydroquinoxalin-6-yl)acetamido)ethyl)phenoxy)acetic acid]
- pEC50: ≥ 7.30

Structure (SMILES): CN(C(=O)Cc1ccc2c(c1)NC(=O)CS2)[C@H](CN1CC[C@H](O)C1)c1cccc(OCC(=O)O)c1 [Example 172, 2-(3-((S)-2-((S)-3-hydroxypyrrolidin-1-yl)-1-(N-methyl-2-(3-oxo-3,4-dihydro-2H-benzo[b][1,4]thiazin-6-yl)acetamido)ethyl)phenoxy)acetic acid]
- pEC50: ≥ 7.30

Structure (SMILES): CN(C(=O)Cc1ccc2c(c1)NC(=O)CO2)[C@H](CN1CC[C@H](O)C1)c1cccc(OCC(N)=O)c1 [Example 173, N-((S)-1-(3-(2-amino-2-oxoethoxy)phenyl)-2-((S)-3-hydroxypyrrolidin-1-yl)ethyl)-N-methyl-2-(3-oxo-3,4-dihydro-2H-benzo[b][1,4]oxazin-6-yl)acetamide]
- pEC50: ≥ 7.30

Structure (SMILES): CN(C(=O)Cc1ccc2c(c1)NC(=O)CS2(=O)=O)[C@H](CN1CC[C@H](O)C1)c1cccc(OCC(=O)NS(C)(=O)=O)c1 [Example 174, 2-(1,1-dioxido-3-oxo-3,4-dihydro-2H-benzo[b][1,4]thiazin-6-yl)-N-((S)-2-((S)-3-hydroxypyrrolidin-1-yl)-1-(3-(2-(methylsulfonamido)-2-oxoethoxy)phenyl)ethyl)-N-methylacetamide]
- pEC50: ≥ 7.30

Structure (SMILES): CN(C(=O)Cc1ccc2c(c1)NC(=O)CS2)[C@H](CN1CC[C@H](O)C1)c1cccc(OCC(N)=O)c1 [Example 175, N-((S)-1-(3-(2-amino-2-oxoethoxy)phenyl)-2-((S)-3-hydroxypyrrolidin-1-yl)ethyl)-N-methyl-2-(3-oxo-3,4-dihydro-2H-benzo[b][1,4]thiazin-6-yl)acetamide]
- pEC50: ≥ 7.30

Structure (SMILES): CN(C(=O)Cc1ccc2oc(=O)[nH]c2c1)[C@H](CN1CC[C@H](O)C1)c1cccc(C(=O)O)c1 [Example 176, 3-((S)-2-((S)-3-hydroxypyrrolidin-1-yl)-1-(N-methyl-2-(2-oxo-2,3-dihydrobenzo[d]oxazol-5-yl)acetamido)ethyl)benzoic acid]
- pEC50: ≥ 7.30

Structure (SMILES): CN(C(=O)Cc1ccc2c(c1)NC(=O)C2)[C@H](CN1CC[C@H](O)C1)c1cccc(C(=O)NS(C)(=O)=O)c1 [Example 177, 3-((S)-2-((S)-3-hydroxypyrrolidin-1-yl)-1-(N-methyl-2-(2-oxoindolin-6-yl)acetamido)ethyl)-N-(methylsulfonyl)benzamide]
- pEC50: ≥ 7.30
